Measured values: PMC8426295, “Cytotoxic and radiosensitising effects of a novel thioredoxin reductase inhibitor in breast cancer” (Investigational New Drugs, 2021)
Marks after values point to notes of the source that are not given here.

What was measured:
Format in all cases: cell-based, human
[1] = tested on: MCF-7 cells; assay: Drug-radiation combination clonogenic survival (LQ model); conditions: 1000 nM IQ9 for 4 h followed by irradiation
Experimental: (§1) 5 × 10^5 cells were seeded in T25 cm^2 tissue culture flasks and incubated overnight. The sub-confluent cells were then treated either for 4-h or 48-h with IQ9 (0–5000 nM) or doxorubicin (10–20 nM). Following drug treatment, cells were collected, counted, and plated at low-density, in triplicate, and incubated, at 37 °C, 5% CO2, undisturbed, for 2 weeks for TNBC cells and 3 weeks for luminal cells, for colony formation. Colonies were fixed (50% methanol in 0.9% saline solution) and stained (0.5% crystal violet solution). Colonies consisting of more than 50 cells were confirmed by microscopy and scored as survivors. The plating efficiency (PE) was calculated as numbers of colonies formed/ numbers of cells plated. For single-agent treatment, drug or radiation, the surviving fraction was calculated as: number of colonies formed/ (numbers of cell plated x PE). For drug radiation combination experiments, cytotoxicity of drug treatment was accounted for by calculating surviving fraction as: number of colonies formed from each radiation dose/ (number of cells plated × PE × surviving fraction of drug-treated cell at 0 Gy).
(§2) Sub-confluent cells were irradiated with a dose of 2, 4, 6, or 8 Gy (at a dose rate of 0.87 Gy/min) using an RS225 x-ray cabinet irradiation system (Xstrahl Limited, UK), fitted with a 0.5 mm Cu filter and run at 195 kV, 10 mA. Following irradiation, cells were immediately trypsinised and plated for clonogenic survival. Sham-irradiated cells were used as controls. Dose-response curves were plotted as a function of radiation dose on a log/ linear plot. Clonogenic survival calculation software (CS-CAL), developed by the Translational Radiation Oncology Group, German Cancer Research Centre was used to fit survival curves to the linear-quadratic (LQ) model (equation: […] ). The software can be accessed online at http://angiogenesis.dkfz.de/oncoexpress/software/cs-cal/. For drug-radiation combinations, cells were treated with 1000 nM IQ9 (2500 nM for T47D) for 4 h followed by irradiation (0–8 Gy). For 48 h drug treatment experiments, MDA-MB-231 and T47D cells were treated with clonogenic IC50 concentrations of IQ9 before irradiation. The sensitiser enhancement ratio (SER), calculated by dividing the X-ray dose causing 1% cell survival in the absence of drug treatment by the X-ray dose leading to 1% cell survival in the presence of drug treatment, was used to evaluate the degree of radiosensitisation.
(§3) IC50 values were calculated from dose-response curves using an SPSS regression model between inhibition ratios and concentration gradients. The radiobiological parameters: alpha (α), beta (β), α/β ratio, and surviving fraction at 2 Gy (SF2) were extracted from the survival curves fitted using the LQ model. All results are presented as average ± standard deviation (SD) of three independent experiments, each performed in triplicate. Data were analysed using the student T-test and ANOVA one-way test. Statistical analysis was performed using SPSS 23.0 software. Values of P < 0.05 were considered statistically significant.

[2] = tested on: MDA-MB-231 cells; assay: as above; conditions: for SER (sensitiser enhancement ratio): at 1% cell survival
Experimental: as §1, §2, §3

[3] = tested on: MDA-MB-436 cells; assay: as above
Experimental: as §1, §2, §3

[4] = tested on: MDA-MB-468 cells; assay: as above
Experimental: as §1, §2, §3

[5] = tested on: T47D cells; assay: as above; conditions: for SER (sensitiser enhancement ratio): at 1% cell survival
Experimental: as §1, §2, §3

[6] = tested on: triple-negative breast cancer cells; assay: Drug-radiation combination clonogenic survival, stated for TNBC cells together; conditions: IQ9 for 4 h followed by irradiation, range over TNBC cell lines
Experimental: as §1, with “For drug radiation combination experiments, cytotoxicity of drug treatment was accounted for by calculating surviving fraction as: number of colonies formed from each radiation dose/ (number of cells plated × PE × surviving fraction of drug-treated cell at 0 Gy).” left out
Sub-confluent cells were irradiated with a dose of 2, 4, 6, or 8 Gy (at a dose rate of 0.87 Gy/min) using an RS225 x-ray cabinet irradiation system (Xstrahl Limited, UK), fitted with a 0.5 mm Cu filter and run at 195 kV, 10 mA. […] The sensitiser enhancement ratio (SER), calculated by dividing the X-ray dose causing 1% cell survival in the absence of drug treatment by the X-ray dose leading to 1% cell survival in the presence of drug treatment, was used to evaluate the degree of radiosensitisation.

[7] = tested on: Trx; assay: Western blotting of Trx expression; conditions: 48 h
Experimental: (§4) Cells were treated with IQ9 (clonogenic IC50 concentrations) for 48 h, harvested, and resuspended in 1 mL of RIPA buffer (Sigma, UK) supplemented with 1X Halt phosphatase inhibitor cocktail, protease inhibitor cocktail, and EDTA. Samples were run on an SDS-polyacrylamide gel and transferred onto a 0.2 μm nitrocellulose membrane (GE Healthcare). The membrane was then blocked using 5% milk powder in 0.1% PBS/ Tween20, for 1 h at room temperature and then incubated with primary antibody overnight at 4 °C. Anti-β-actin antibody (Abcam) was used as a loading control. Primary antibodies were rabbit anti-human Trx (Abcam; 1:1000), mouse anti-human antibody (Abcam; 1:500), and rabbit anti-human Txnip (Abcam; 1:500). For Trx and Txnip, bands were detected using an Odyssey FC Imager (LI-COR). Images were obtained and fluorescence intensity quantified using Image Studio Software (version 4). The signals for Trx and Txnip were normalised against β-actin. For TrxR, bands were detected using an Amersham Enhanced Chemiluminescence system (GE Healthcare).

[8] = tested on: TrxR; assay: Western blotting of TrxR expression; conditions: clonogenic IC50 concentration, 48 h
Experimental: as §4

[9] = 1000 nM IQ9 for 4 h followed by irradiation
[10] = IQ9 exposure 48 h before irradiation
[11] = clonogenic IC50 concentration of IQ9 for 48 h before irradiation
[12] = 1000 nM IQ9 for 4 h followed by irradiation, at 1% cell survival
[13] = IQ9 for 4 h followed by irradiation, vs control
[14] = 2500 nM IQ9 for 4 h followed by irradiation

COC1=CC(=O)c2c(c(COc3c(F)cc(F)cc3F)cn2C)C1=O [IQ9]
SF2 (surviving fraction at 2 Gy) [1]: 0.24 ± 0.10 | α [1]: 0.58 ± 0.18 Gy^−1 | α/β Ratio [1]: 7.25 ± 3.19 | β [1]: 0.08 ± 0.02 Gy^−2 | SER (sensitiser enhancement ratio) ([1]; at 1% cell survival): 1.08 | SF2 (surviving fraction at 2 Gy) [2, 9]: 0.21 ± 0.02 | α [2, 9]: 0.70 ± 0.17 Gy^−1 | α/β Ratio [2, 9]: 11.67 ± 3.63 | β [2, 9]: 0.06 ± 0.01 Gy^−2 | SER (sensitiser enhancement ratio) [2, 9]: 1.20 | radiosensitivity (in words) [2, 10]: no significant increase in radiosensitivity | SF2 (surviving fraction at 2 Gy) [2, 11]: 0.22 ± 0.08 | α [2, 11]: 0.85 ± 0.04 Gy^−1 | α/β Ratio [2, 11]: 25.60 ± 4.62 | β [2, 11]: 0.03 ± 0.01 Gy^−2 | SER (sensitiser enhancement ratio) [2, 11]: 1.07 | SF2 (surviving fraction at 2 Gy) [3, 9]: 0.07 ± 0.01 | α [3, 9]: 1.33 ± 0.06* Gy^−1 | α/β Ratio [3, 9]: 66.53 ± 2.89 | β [3, 9]: 0.02 ± 0.00 Gy^−2 | SER (sensitiser enhancement ratio) [3, 12]: 1.43 | factor of increase in α [3, 13]: 1.8 | SF2 (surviving fraction at 2 Gy) [4, 9]: 0.19 ± 0.01 | α [4, 9]: 0.85 ± 0.08* Gy^−1 | α/β Ratio [4, 9]: 85.00 ± 8.18 | β [4, 9]: 0.01 ± 0.00 Gy^−2 | SER (sensitiser enhancement ratio) [4, 12]: 1.30 | factor of increase in α [4, 13]: 1.4 | SF2 (surviving fraction at 2 Gy) [5, 14]: 0.45 ± 0.02 | α [5, 14]: 0.47 ± 0.04 Gy^−1 | α/β Ratio [5, 14]: 15.66 ± 1.17 | β [5, 14]: 0.03 ± 0.00 Gy^−2 | SER (sensitiser enhancement ratio) [5, 14]: 1.00 | radiosensitivity (in words) [5, 10]: no significant increase in radiosensitivity | radiosensitisation (in words) ([5]; IQ9 for 4 h followed by irradiation): no altered radiosensitisation | SF2 (surviving fraction at 2 Gy) [5, 11]: 0.31 ± 0.04 | α [5, 11]: 0.40 ± 0.12 Gy^−1 | α/β Ratio [5, 11]: 7.27 ± 5.53 | β [5, 11]: 0.05 ± 0.02 Gy^−2 | SER (sensitiser enhancement ratio) [5, 11]: 1.00 | SER values (sensitiser enhancement ratios) [6]: 1.20–1.43 | expression of Trx ([7]; MDA-MB-231, clonogenic IC50 concentration, P = 0.003): increased expression | expression of Trx ([7]; the other four cell lines (MDA-MB-468, MDA-MB-436, T47D, MCF-7), clonogenic IC50 concentration): no effect | expression of TrxR ([8]; TNBC cells): little effect, if any | expression of TrxR ([8]; luminal cells): Increased expression
